Source: ChEMBL document CHEMBL5441142, “Probing the Merck KGaA Open Global health library for novel starting points for anti-schistosomal drug discovery” (2024)
Activity calls are given as the source filed them. How the calls were made is not given here.

What follows are compounds tested on Schistosoma mansoni (assay: In vitro activity screen on S. mansoni schistosomula at 10 uM. Compound-induced effects were assessed by quantifying larva motility and phenotype using Roboworm.). Conditions: Puerto Rican.
Type: functional, organism-based
Set-up: test concentration 10 uM, temperature 37 degree C, time incubation 72 h
For COc1cc(OC)cc(-c2cn3cc(C(=O)NCCc4ccc(OC)cc4OC)ccc3n2)c1, the In vitro activity was “inactive”.
With COCCCN1CCC2(CC1)OC(=O)C(C)=C2C(=O)N1CCc2ccc(C(F)(F)F)cc2C1 the In vitro activity was “inactive”.
For CCCc1nn(C)c2c(=O)[nH]c(-c3cc(S(=O)(=O)Oc4cccnc4)ccc3OCC)nc12, the In vitro activity was “inactive”.
In the case of Cc1nc2c3c(nn2c(C)c1Cl)CN(C(=O)c1ccc(F)cc1OC1C[C@H]2COC[C@H](C1)N2C)C3 (some centres not stated), the In vitro activity is reported as “inactive”.
In the case of CCNC1=N[C@@H]2[C@@H](O)[C@H](O)[C@@H](Cn3cc(COc4ccc(C)cc4)nn3)O[C@@H]2S1, the In vitro activity is reported as “inactive”.
Cc1ccc(-c2ccccc2)cc1C(=O)N=C(N)N was tested, and the In vitro activity was “inactive”.
For COc1ccc(CNc2nc(-c3ccc(C(=O)O)cc3)nc3sc4c(c23)CCCC4)cc1Cl, the In vitro activity was “inactive”.
COc1cc([S+]([O-])C(C)C)ccc1-c1nc2ccncc2[nH]1 (configuration not stated) was tested, and the In vitro activity was “inactive”.
For Cc1ccccc1-c1ccc(-c2nc(-c3ccc(CN(C)CCC(=O)O)cc3)no2)cc1C(F)(F)F, the In vitro activity was “inactive”.
In the case of O=C(c1cc(-c2ccccn2)nc2ccc(Br)cc12)N1CCCC1, the In vitro activity is reported as “inactive”.
In the case of CC1=C(C(=O)N2Cc3cc(C(F)(F)F)ccc3C3(CC3)C2)C2(CCN(C3CCOCC3)CC2)OC1=O, the In vitro activity is reported as “inactive”.
For Cc1cc(Cl)c(-n2cccc2)cc1C(=O)N=C(N)N, the In vitro activity was “inactive”.
With CCN1CCC2(CC1)OC(=O)C(C)=C2C(=O)N1C[C@@H]2C[C@H]1CN2c1cc(C(F)(F)F)ccn1 the In vitro activity was “inactive”.
With O=C(O)c1ccc(-c2nc(NCc3ccccc3)c3c4c(sc3n2)CCCC4)cc1 the In vitro activity was “inactive”.
With C1=C(c2ccccc2)CCN(CCCCc2c[nH]c3ccccc23)C1 the In vitro activity was “inactive”.
With COCc1cc(-c2nc(-c3cccc(CN(C)CC(=O)O)c3)no2)ccc1-c1cccc(F)c1C the In vitro activity was “inactive”.
With CCCc1nn(C)c2c(=O)[nH]c(-c3cc(S(=O)(=O)n4ccc(O)cc4=O)ccc3OCC)nc12 the In vitro activity was “inactive”.
CCCCCCN(Cc1ccc(C#Cc2ccc(CCCC)cc2)cc1)c1ccc(F)c(C(=O)O)c1 was tested, and the In vitro activity was “inactive”.
In the case of CC1(C)Oc2ccc(C#N)cc2[C@@H](n2ccccc2=O)[C@]1(C)O, the In vitro activity is reported as “inactive”.
In the case of COc1ccc(OC)c(-c2cn3cc(C(=O)NCCc4cc(OC)c5c(c4OC)OCO5)sc3n2)c1, the In vitro activity is reported as “inactive”.
In the case of O=C(O)c1ccc(C(=O)Nc2sc3c(c2C(=O)NCc2ccc4c(c2)OCO4)CCCC3)cc1, the In vitro activity is reported as “inactive”.
COCc1cc(-c2nc(-c3cc(F)cc(CN(C)CC(=O)O)c3)no2)ccc1-c1cccc(F)c1C was tested, and the In vitro activity was “inactive”.
COc1ccccc1CCN1CCC2(CC1)OC(=O)C(C)=C2C(=O)N1CCc2ccc(C(F)(F)F)cc2C1 was tested, and the In vitro activity was “inactive”.
In the case of CC(C)(Sc1nc(-c2ccccc2)c(-c2ccccc2)s1)C(=O)O, the In vitro activity is reported as “inactive”.
For CCOc1cc(-c2nc(-c3ccc(CN(C)CC(=O)O)c(F)c3)no2)ccc1-c1ccccc1C, the In vitro activity was “inactive”.
In the case of CN(C)c1nc2c(s1)CCc1[nH]c(=O)c(C#N)cc1-2, the In vitro activity is reported as “inactive”.
CCOC(=O)c1ccc(C2=CSC3=Nc4ccccc4CCN23)cc1 was tested, and the In vitro activity was “inactive”.
For CCc1ccccc1N/C=C1\C(=O)N(c2ccc(S(=O)(=O)O)cc2)N=C1C, the In vitro activity was “inactive”.
CCN1CCC2(CC1)OC(=O)C(C)=C2C(=O)N1C[C@@H]2C[C@H]1CN2c1nccc(C(F)(F)F)n1 was tested, and the In vitro activity was “inactive”.
In the case of O=C(O)[C@H]1CC[C@H](c2nc(NCc3ccc4c(c3)OCO4)c3c(n2)sc2ccccc23)CC1, the In vitro activity is reported as “inactive”.
In the case of Cc1cc(Oc2ccccc2)c(S(C)(=O)=O)cc1C(=O)N=C(N)N, the In vitro activity is reported as “inactive”.
For O=C(Nc1ccc(CNc2ncnc3ccccc23)cc1)c1ccc(Cl)c(F)c1, the In vitro activity was “inactive”.
COc1ccc(CNc2nc(CCCCC(=O)O)nc3sc4ccccc4c23)cc1Cl was tested, and the In vitro activity was “inactive”.
CCSc1cc(C)c(C(=O)N=C(N)N)cc1S(C)(=O)=O was tested, and the In vitro activity was “inactive”.
CCCCCCN(Cc1ccc(C#Cc2ccc(CCCC)cc2)cc1)C(=O)c1ccc(O)c(C(=O)O)c1 was tested, and the In vitro activity was “inactive”.
With C=CCSc1ccc(-c2nc3ccncc3[nH]2)c(OC)c1 the In vitro activity was “inactive”.
CC(c1ccc2c(c1)CCC2)N1CCN(c2ccccc2)CC1 (configuration not stated) was tested, and the In vitro activity was “inactive”.
For Cc1ccccc1-c1ccc(-c2nc(-c3ccc(CN(C)CCC(=O)O)c(F)c3)no2)cc1C(F)(F)F, the In vitro activity was “inactive”.
COCc1cc(-c2nc(-c3cc(F)cc(CN(C)CC(=O)O)c3)no2)ccc1-c1ccccc1F was tested, and the In vitro activity was “inactive”.
For COc1ccc(CNc2nc(-c3ccc(S(=O)(=O)O)cc3)nc3sc4c(c23)CCCC4)cc1Cl, the In vitro activity was “inactive”.
For COc1ccc(OCC(N)=O)cc1-c1cn2cc(C(=O)NCCc3c(OC)cccc3OC)sc2n1, the In vitro activity was “inactive”.
For COc1ccc(CNc2nc(CCCCC(=O)O)nc3sc4c(c23)CCCC4)cc1Cl, the In vitro activity was “inactive”.
With CO[C@@H]1COCC[C@@H]1N1CCC2(CC1)OC(=O)C(C)=C2C(=O)N1CCc2ccc(C(F)(F)F)cc2C1 the In vitro activity was “inactive”.
For CCCCc1nc2ccn(Cc3ccccc3)c(=O)c2n1Cc1ccc(-c2ccccc2-c2nn[nH]n2)cc1, the In vitro activity was “inactive”.
In the case of CCN1CCC2(CC1C)OC(=O)C(C)=C2C(=O)N1CCc2ccc(C(F)(F)F)cc2C1 (configuration not stated), the In vitro activity is reported as “inactive”.
CCOc1cc(CCC(=O)NC[C@H]2S[C@@H](c3ccc(C#Cc4ccccc4)cc3)N(c3cccc(C(N)=O)c3)C2=O)ccc1OC was tested, and the In vitro activity was “inactive”.
CC1=C(C(=O)N2CCc3ncc(C(F)(F)F)cc3C2)C2(CCN(C3CCCCC3)CC2)OC1=O was tested, and the In vitro activity was “inactive”.
In the case of CC(Sc1nc(-c2ccc(Cl)cc2)c(-c2ccc(Cl)cc2)o1)C(=O)NCC(=O)O (configuration not stated), the In vitro activity is reported as “inactive”.
COc1cc([S+]([O-])Cc2ccccc2)ccc1-c1nc2ccncc2[nH]1 (configuration not stated) was tested, and the In vitro activity was “inactive”.
With COCc1cc(-c2nc(-c3ccc(CN(C)CCC(=O)O)cc3)no2)ccc1-c1ccccc1C the In vitro activity was “inactive”.
For C=CC(C)c1cc(C)c(C(=O)N=C(N)N)cc1S(C)(=O)=O (configuration not stated), the In vitro activity was “inactive”.
In the case of COc1cc(OC)c(CCNC(=O)c2cn3cc(-c4cc(OCC(=O)O)ccc4OC)nc3s2)c(OC)c1, the In vitro activity is reported as “inactive”.
In the case of CC1=C(C(=O)N2CCc3ccc(C(F)(F)F)cc3C2)C2(CCN(C3CCCCC3)CC2)OC1=O, the In vitro activity is reported as “inactive”.
With O=C(O)c1ccc2[nH]cc(CCCCN3CC=C(c4ccccc4)CC3)c2c1 the In vitro activity was “inactive”.
In the case of Cc1cc(Oc2cccnc2)c([N+](=O)[O-])cc1C(=O)N=C(N)N, the In vitro activity is reported as “inactive”.
In the case of CC(c1cccc(-c2nnn[nH]2)c1)N(Cc1ccccc1)S(=O)(=O)c1ccc(Cl)cc1 (configuration not stated), the In vitro activity is reported as “inactive”.
For CCCSc1cc(C)c(C(=O)N=C(N)N)cc1S(C)(=O)=O, the In vitro activity was “inactive”.
In the case of Cn1nc(O[C@@H]2c3cc(C#N)ccc3OC(C)(C)[C@H]2O)ccc1=O, the In vitro activity is reported as “inactive”.
With Cc1cc2c(cc1C(=O)N=C(N)N)S(=O)(=O)C(C)(C)/C2=N\O the In vitro activity was “inactive”.
In the case of COc1cc(Nc2nccn3nc(Nc4cccc(C(F)(F)F)c4)nc23)cc(OC)c1, the In vitro activity is reported as “inactive”.
With CCCCc1nc2ccn(Cc3ccccc3C(=O)OCC)c(=O)c2n1Cc1ccc(-c2ccccc2-c2nn[nH]n2)cc1 the In vitro activity was “inactive”.
For CCc1cc2c(NCc3ccc(OC)c(Cl)c3)nc(-c3ccc(C(=O)O)cc3)nc2s1, the In vitro activity was “inactive”.
With O=C(O)c1ccc(CCN2C(=O)CCN2CCC(O)Cc2cccc(Br)c2)cc1 (configuration not stated) the In vitro activity was “inactive”.
For CCc1cc(C(=O)NCc2ccc(OC)c(Cl)c2)c(NC(=O)c2ccc(C(=O)O)cc2)s1, the In vitro activity was “inactive”.
For CCCN1CCC2(CC1)OC(=O)C(C)=C2C(=O)N1CCc2ccc(C(F)(F)F)cc2C1, the In vitro activity was “inactive”.
In the case of CCN(CCC(=O)O)Cc1cccc(-c2noc(-c3ccc(-c4ccccc4F)c(COC)c3)n2)c1, the In vitro activity is reported as “inactive”.
COc1ccccc1-n1c(=S)[nH]c2scc(C)c2c1=O was tested, and the In vitro activity was “inactive”.
CNC(=O)c1cc(Oc2ccc(NC(=O)Nc3cc(C(F)(F)F)ccc3-n3ccnc3)cc2)ccn1 was tested, and the In vitro activity was “inactive”.
For COCc1cc(-c2nc(-c3cc(F)cc(CN(C)CC(=O)O)c3)no2)ccc1-c1ccccc1C, the In vitro activity was “inactive”.
Cc1cc2c(cc1C(=O)N=C(N)N)S(=O)(=O)CCC2C (configuration not stated) was tested, and the In vitro activity was “inactive”.
In the case of O=c1nc(Nc2cccc(Oc3ccncc3)c2)[nH]c2ccccc12, the In vitro activity is reported as “inactive”.
For O=C(O)Cc1ccc(-c2nc(NCc3ccc4c(c3)OCO4)c3c(n2)sc2ccccc23)cc1, the In vitro activity was “inactive”.
For CC1=C(C(=O)N2CCN(c3cccc(C(F)(F)F)c3)CC2)C2(CCN(CCc3ccc(F)cc3)CC2)OC1=O, the In vitro activity was “inactive”.
For Cc1sc2nc(N3CCC(C(=O)O)CC3)nc(NCc3ccc4c(c3)OCO4)c2c1Cl, the In vitro activity was “inactive”.
CCCc1nn(C)c2c(NCc3ccc(OC)c(Cl)c3)nc(CCCCC(=O)NS(C)(=O)=O)nc12 was tested, and the In vitro activity was “inactive”.
With COc1cc(SC(C)C#N)ccc1-c1nc2ccncc2[nH]1 (configuration not stated) the In vitro activity was “inactive”.
With CC1=C(C(=O)N2CCc3ccc(C(F)(F)F)cc3C2)C2(CCN(C3CCOC(C)(C)C3)CC2)OC1=O (configuration not stated) the In vitro activity was “inactive”.
C[C@H]1CCCCN1c1ccc(-c2nc(-c3cccc(CN(C)CC(=O)O)c3)no2)cc1C(F)(F)F was tested, and the In vitro activity was “inactive”.
In the case of CCC(C)Oc1ccc(-c2nc(-c3cc(F)cc(CN(C)CC(=O)O)c3)no2)cc1COC (configuration not stated), the In vitro activity is reported as “inactive”.
For COc1cc(C(=O)Nc2cn(Cc3ccc(Cl)cc3)nn2)ccc1-n1cnc(C)c1, the In vitro activity was “inactive”.
In the case of COc1cc(C(=O)Nc2nc(Nc3cccc(C(F)(F)F)c3)n(C)n2)ccc1-n1cnc(C)c1, the In vitro activity is reported as “inactive”.
For CCC(C)Oc1ccc(-c2nc(-c3ccc([C@@H](C)NCC(=O)O)cc3)no2)cc1COC (some centres not stated), the In vitro activity was “inactive”.
In the case of CC1(C)Oc2ccc(C#N)cc2[C@H](n2ccccc2=O)[C@H]1O, the In vitro activity is reported as “inactive”.
COc1cc(C(=O)N(C)C)ccc1-c1cc2nccc(-c3ccc4ccncc4c3)c2o1 was tested, and the In vitro activity was “inactive”.
In the case of COCc1cc(-c2nc(-c3cc(F)cc(CN(C)CCC(=O)O)c3)no2)ccc1-c1ccccc1C, the In vitro activity is reported as “inactive”.
With Cc1cc(-n2cccc2)c(S(C)(=O)=O)cc1C(=O)N=C(N)N the In vitro activity was “inactive”.
In the case of O=C(O)C1CCN(c2nc(NCc3ccc4c(c3)OCO4)c3c4c(sc3n2)CCCC4)CC1, the In vitro activity is reported as “inactive”.
